Data: patent publication US20230240297A1, “SELECTIVE HERBICIDES BASED ON SUBSTITUTED ISOXAZOLIN CARBOXAMIDES AND CYPROSULFAMIDE” (Bayer Aktiengesellschaft, priority 2020, published 2023)

Legend:
Assay type in all cases: in vivo, maize
[1] = test system: ZEAMA Sileno; assay: Treatment 1 day before (safener applied one day before herbicide, post-emergence); parameters: key to Reduction [Difference]: percentage points of visually scored % crop damage vs untreated control; conditions: for Reduction [%] / Reduction [Difference]: cyprosulfamide 100 g a.i./ha 1 day before; for HER effect + SAF: cyprosulfamide 100 g a.i./ha applied 1 day before; for HER effect + SAF / HER effect: Final assessment; for HER effect: no safener
Text: Seeds of crops (spring wheat, TRZAS; spring barley, HORVS; maize, ZEAMA) were placed in sandy loam soil in pots of a diameter of 7-8 cm, covered with soil, and cultivated in a greenhouse under good growth conditions until plants were at the 1-3 leaf stage (BBCH 11-13). For split safener and herbicide treatment, first the safener was applied followed by the herbicide treatment on the following day. The safener and herbicides were formulated as WP and sprayed onto the green parts of the plants as an aqueous suspension at an equivalent water application rate of 300 1/ha, with addition of wetting agent and adjuvants (e.g. Mero, 1.5 1/ha; ammonium sulphate, 2 kg/ha). An equivalent set of plants was treated with the herbicides but without the prior safener treatment.
(§1) After application, the test plants were kept in the greenhouse under good growth conditions. 10 and 21 days after treatment (DAT) with the herbicide, % crop damage observed on the treated plants was scored visually in comparison to control plants that had not received any safener or herbicide treatment.

[2] = test system: ZEAMA Sileno; assay: Seed treatment with safener; pre-emergence herbicide application; conditions: for Reduction [%] / Reduction [Difference]: cyprosulfamide 0.25 g a.i./kg seed; for HER effect + SAF: cyprosulfamide seed treatment 0.25 g a.i./kg seed; for HER effect: no safener
Experimental: For the safener seed treatment, sufficient seeds of the respective crops (spring wheat, TRZAS; spring barley, HORVS; maize, ZEAMA) were weighed into screw top glass bottles approximately twice the volume of the seeds.
The specified safeners, formulated as wettable powder (WP) were weighed out so that the specified rates (g a.i./kg seed) would be obtained, dissolved in water (1 ml water per 10 g of seeds), and added to the seeds to produce a slurry.
The bottles were capped and then placed in an overhead shaker (set at medium speed for ca. 60 minutes) so that the seeds were evenly coated with the slurry. The bottles were uncapped and the seeds were either placed on paper and dried for an interval of 3-4 hours prior to sowing, or directly sown. Seeds were placed in sandy loam soil in pots of a diameter of 7-8 cm, and covered with soil.
Pre-emergence application of the specified herbicides was done subsequently, on two sets of plants: • a) seed treatment with safener, as described above • b) no safener treatment
The herbicides were formulated as WP and was sprayed onto the soil surface as an aqueous suspension at an equivalent water application rate of 300 1/ha.
as §1, with “At intervals up to 4 weeks after application (=28” for “10 and 21”, “treatment; DAT),” for “treatment (DAT) with the herbicide,”
Values in the table below are mean values of at least 2 replicates.

[3] = test system: ZEAMA Sileno; assay: Seed treatment with safener; post-emergence herbicide application; parameters: Reduction [Difference]: scale not given here; conditions: Final assessment; for Reduction [%] / Reduction [Difference]: Cyprosulfamide 0.5 g a.i./kg seed; for Reduction [Difference]: damage without safener - damage with safener; for HER effect + SAF (crop damage with safener): Cyprosulfamide seed treatment 0.5 g a.i./kg seed; for HER effect (crop damage, herbicide without safener): no safener
In short: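 Maize seeds slurry-coated with WP safener (g a.i./kg seed) or left untreated, sown in sandy loam and grown in greenhouse. WP herbicide sprayed post-emergence at BBCH11-13 in 300 l/ha water with wetting agent and adjuvants (e.g. Mero 1.5 l/ha, ammonium sulphate 2 kg/ha); means of at least 2 replicates.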

[4] = test system: ZEAMA Sileno; assay: Tank-mix; post-emergence, crop damage with and without safener; conditions: for HER effect + SAF / HER effect: Final assessment; for HER effect: no safener
In short: (§2)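 Crops in sandy loam in the greenhouse were sprayed at the 1–3-leaf stage, 2–3 weeks after sowing, with herbicide/safener combinations or the single actives at various dosages in 300 l/ha water. Injury was scored visually 1–3 weeks after treatment as % versus untreated plants (0% none, 100% complete kill).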

[5] = test system: ZEAMA Abraxas; assay: as above; conditions: for Reduction [%] / Reduction [Difference]: cyprosulfamide 50 g a.i./ha; for HER effect + SAF / HER effect: Final assessment; for HER effect: no safener
In short: as §2

[6] = HER dose 40 g a.i./ha pre-emergence, 14 DAT
[7] = HER dose 40 g a.i./ha pre-emergence, 26 DAT
[8] = HER dose 2 g a.i./ha + cyprosulfamide 50 g a.i./ha tank-mix
[9] = HER dose 8 g a.i./ha + cyprosulfamide 50 g a.i./ha tank-mix
[10] = HER dose 80 g a.i./ha pre-emergence, 26 DAT
[11] = HER 8 g a.i./ha, cyprosulfamide 50 g a.i./ha
[12] = HER 32 g a.i./ha, cyprosulfamide 100 g a.i./ha

SMILES | Reduction [%] ([3]; HER dose 2 g a.i./ha) | Reduction [Difference] ([3]; HER dose 2 g a.i./ha) | HER effect + SAF (crop damage with safener) ([3]; HER dose 2 g a.i./ha) [%] | HER effect (crop damage, herbicide without safener) ([3]; HER dose 2 g a.i./ha) [%] | Reduction [%] ([3]; HER dose 8 g a.i./ha) | Reduction [Difference] ([3]; HER dose 8 g a.i./ha) | HER effect + SAF (crop damage with safener) ([3]; HER dose 8 g a.i./ha) [%] | HER effect (crop damage, herbicide without safener) ([3]; HER dose 8 g a.i./ha) [%] | Reduction [%] ([3]; HER dose 32 g a.i./ha) | Reduction [Difference] ([3]; HER dose 32 g a.i./ha) | HER effect + SAF (crop damage with safener) ([3]; HER dose 32 g a.i./ha) [%] | HER effect (crop damage, herbicide without safener) ([3]; HER dose 32 g a.i./ha) [%] | Reduction [%] ([1]; HER 32 g a.i./ha) | Reduction [Difference] ([1]; HER 32 g a.i./ha) | HER effect + SAF ([1]; HER dose 32 g a.i./ha) [%] | HER effect ([1]; HER dose 32 g a.i./ha) [%] | Reduction [%] ([5]; HER 2 g a.i./ha) | Reduction [Difference] ([5]; HER 2 g a.i./ha) | HER effect + SAF [5, 8] [%] | HER effect ([5]; HER dose 2 g a.i./ha) [%] | other results
C=CC1(C(=O)NC2COC(C(=O)OC)C2)CC(c2cc(F)cc(F)c2)=NO1 (mixture of isomers) [Example 1.68] | 83 | 50 | 10 | 60 | 74 | 73 | 25 | 98 | 69 | 68 | 30 | 98 | – | – | – | – | – | – | – | – | Reduction [%] ([1]; HER 8 g a.i./ha): 69%; Reduction [Difference] ([1]; HER 8 g a.i./ha): 68; HER effect + SAF ([1]; HER dose 8 g a.i./ha): 30%; HER effect ([1]; HER dose 8 g a.i./ha): 98%; Reduction [%] ([2]; HER 40 g a.i./ha, 14 DAT): 41%; Reduction [Difference] ([2]; HER 40 g a.i./ha, 14 DAT): 38; Reduction [%] ([2]; HER 40 g a.i./ha, 26 DAT): 58%; Reduction [Difference] ([2]; HER 40 g a.i./ha, 26 DAT): 55; HER effect + SAF [2, 6]: 55%; HER effect + SAF [2, 7]: 40%; HER effect [2, 6]: 93%; HER effect [2, 7]: 95%; Reduction [%] ([4]; HER 2 g a.i./ha, cyprosulfamide 50 g a.i./ha): 67%; Reduction [Difference] ([4]; HER 2 g a.i./ha, cyprosulfamide 50 g a.i./ha, damage without safener - damage with safener): 40; HER effect + SAF [4, 8]: 20%; HER effect ([4]; HER dose 2 g a.i./ha, 0% = no injury, 100% = complete kill): 60%
COC(=O)C1C=CC(NC(=O)C2(C)CC(c3cc(F)cc(F)c3)=NO2)C1 (stereo not shown) [Example 1.19] | – | – | – | – | 75 | 30 | 10 | 40 | 75 | 60 | 20 | 80 | 88 | 70 | 10 | 80 | 80 | 60 | 15 | 75 | –
COC(=O)C1C=CC(NC(=O)C2(C)CC(c3cc(F)cc(Cl)c3)=NO2)C1 (stereo not shown) [Example 1.21] | – | – | – | – | – | – | – | – | 71 | 25 | 10 | 35 | 57 | 20 | 15 | 35 | – | – | – | – | Reduction [%] ([5]; HER 8 g a.i./ha): 71%; Reduction [Difference] ([5]; HER 8 g a.i./ha): 25; HER effect + SAF [5, 9]: 10%; HER effect ([5]; HER dose 8 g a.i./ha): 35%
C=CC1(C(=O)NC2C=CC(C(=O)OC)C2)CC(c2cc(F)cc(F)c2)=NO1 (stereo not shown) [Example 1.26] | – | – | – | – | 74 | 42 | 15 | 57 | 71 | 67 | 27 | 94 | – | – | – | – | – | – | – | – | Reduction [%] ([2]; HER 40 g a.i./ha, 26 DAT): 70%; Reduction [Difference] ([2]; HER 40 g a.i./ha, 26 DAT): 35; Reduction [%] ([2]; HER 80 g a.i./ha, 26 DAT): 57%; Reduction [Difference] ([2]; HER 80 g a.i./ha, 26 DAT): 40; HER effect + SAF [2, 7]: 15%; HER effect [2, 7]: 50%; HER effect + SAF [2, 10]: 30%; HER effect [2, 10]: 70%; Reduction [%] [4, 11]: 70%; Reduction [Difference] [4, 11]: 40; Reduction [%] [4, 12]: 71%; Reduction [Difference] [4, 12]: 67; HER effect + SAF [4, 9]: 17%; HER effect ([4]; HER dose 8 g a.i./ha): 57%; HER effect + SAF ([4]; HER dose 32 g a.i./ha + cyprosulfamide 100 g a.i./ha tank-mix): 27%; HER effect ([4]; HER dose 32 g a.i./ha): 94%
CCCSCCOC(=O)C1C=CC(NC(=O)C2(C)CC(c3cc(F)cc(F)c3)=NO2)C1 (stereo not shown) [Example 1.34] | 100 | 20 | 0 | 20 | 80 | 40 | 10 | 50 | 78 | 35 | 10 | 45 | 44 | 20 | 25 | 45 | 50 | 25 | 25 | 50 | Reduction [%] ([1]; HER 8 g a.i./ha): 60%; Reduction [Difference] ([1]; HER 8 g a.i./ha): 30; HER effect + SAF ([1]; HER dose 8 g a.i./ha): 20%; HER effect ([1]; HER dose 8 g a.i./ha): 50%
CC1(C(=O)NC2C=CC(C(=O)OCCSC(F)(F)F)C2)CC(c2cc(F)cc(F)c2)=NO1 (stereo not shown) [Example 1.38] | 100 | 25 | 0 | 25 | 100 | 35 | 0 | 35 | 100 | 75 | 0 | 75 | 73 | 55 | 20 | 75 | 42 | 25 | 35 | 60 | –
